Assay results from US9845321B2, “1,3-dihydro-2H-benzimidazol-2-one derivatives substituted with heterocycles as respiratory syncytial virus antiviral agents” (JANSSEN SCIENCES IRELAND UC, priority 2012, dated 2017).

What was measured:
[1] = tested on: rgRSV224 virus; assay: Antiviral activity: rgRSV224 (GFP-expressing RSV) replication in HeLa cells, GFP expression measured three days post-virus exposure; assay type: cell-based; settings: human respiratory syncytial virus, 72 h, read-out: WT activity pEC50 (converted)
Procedure: (§1) Black 96-well clear-bottom microtiter plates (Corning, Amsterdam, The Netherlands) were filled in duplicate using a customized robot system with serial 4-fold dilutions of compound in a final volume of 50 μl culture medium [RPMI medium without phenol red, 10% FBS, 0.04% gentamycin (50 mg/ml) and 0.5% DMSO]. Then, 100 μl of a HeLa cell suspension (5×10^4 cells/ml) in culture medium was added to each well followed by the addition of 50 μl rgRSV224 (MOI=0.02) virus in culture medium using a multidrop dispenser (Thermo Scientific, Erembodegem, Belgium). rgRSV224 virus is an engineered virus that includes an additional GFP gene (Hallak et al, 2000) and was in-licensed from the NIH (Bethesda, Md., USA). Medium, virus- and mock-infected controls were included in each test. Cells were incubated at 37° C. in a 5% CO2 atmosphere. Three days post-virus exposure, viral replication was quantified by measuring GFP expression in the cells by a MSM laser microscope (Tibotec, Beerse, Belgium). The EC50 was defined as the 50% inhibitory concentration for GFP expression. In parallel, compounds were incubated for three days in a set of white 96-well microtitier plates (Corning) and the cytotoxicity of compounds in HeLa cells was determined by measuring the ATP content of the cells using the ATPlite kit (PerkinElmer, Zaventem, Belgium) according to the manufacturer's instructions. The CC50 was defined as the 50% concentration for cytotoxicity.

[2] = in vitro; assay type: cell-based; settings: human
Procedure: as §1

COc1ccc(-n2c(=O)n(Cc3cc4cc(Cl)ccc4n3CCCS(C)(=O)=O)c3cnccc32)cc1 [Compound P35, 3-((5-chloro-1-(3-(methylsulfonyl)propyl)-1H-indol-2-yl)methyl)-1-(4-methoxyphenyl)-1H-imidazo[4,5-c]pyridin-2(3H)-one]
EC50 [1]: 0.316 nM | CC50 at 3 days [2]: 31600 nM | melting point: 215 °C

Cn1ccc(-n2c(=O)n(Cc3cc4cc(Cl)ccc4n3CCCC#N)c3cnccc32)n1 [Compound P36, 4-(5-chloro-2-((1-(1-methyl-1H-pyrazol-3-yl)-2-oxo-1H-imidazo[4,5-c]pyridin-3(2H)-yl)methyl)-1H-indol-1-yl)butanenitrile]
EC50 [1]: 1.58 nM | CC50 at 3 days [2]: 63100 nM | melting point: 244 °C

N#CCCCn1c(Cn2c(=O)n(-c3ncco3)c3ccncc32)cc2cc(Cl)ccc21 [Compound P37, 4-(5-chloro-2-((1-(oxazol-2-yl)-2-oxo-1H-imidazo[4,5-c]pyridin-3(2H)-yl)methyl)-1H-indol-1-yl)butanenitrile]
EC50 [1]: 1.58 nM | CC50 at 3 days [2]: > 100000 nM | melting point: 234 °C

Cn1ccc(-n2c(=O)n(Cc3cc4cc(Cl)ccc4n3CCCCF)c3cnccc32)n1 [Compound P38, 3-((5-chloro-1-(4-fluorobutyl)-1H-indol-2-yl)methyl)-1-(1-methyl-1H-pyrazol-3-yl)-1H-imidazo[4,5-c]pyridin-2(3H)-one]
EC50 [1]: 1.58 nM | CC50 at 3 days [2]: > 100000 nM | melting point: 169.3 °C

N#CCCCn1c(Cn2c(=O)n(-c3ccc(Cl)cc3)c3ccncc32)cc2cc(Cl)ccc21 [Compound P39, 4-(5-chloro-2-((1-(4-chlorophenyl)-2-oxo-1H-imidazo[4,5-c]pyridin-3(2H)-yl)methyl)-1H-indol-1-yl)butanenitrile]
EC50 [1]: 3.98 nM | CC50 at 3 days [2]: 25100 nM | melting point: 210.8 °C
